Columns and labels:
[1] = system: MCF-7 cells; assay: Impedance-based real time cell analysis (XCELLIGENCE) of MCF-7 cells treated with Paclitaxel; set-up: species or system human; conditions: 12.5 nM Paclitaxel
Text: In this example, we have investigated gene expression profiles of human MCF-7 breast cancer cells (human adenocarcinoma breast cancer cell line) obtained from ATCC (passage number: 15, cell number: 5000 cells per well), maintained in MEM (32360, Gibco)+10% FCS (30-3702, PAN)+Na-Pyruvat (PO4-43100, PAN)+Nonessential amino acids (P08-32100, PAN) at time points that are indicated by changes in cell characteristics as visualized by changes of impedance (cell indices) measurements upon drug addition. Accordingly, gene expression profiles were determined at 6 h, 24 h, 72 h and 147 h upon Paclitaxel administration. […] It includes genes involved in various biological functions such as cell cycle regulation and cell proliferation, apoptosis, signal transduction and transcriptional regulation, fatty acid and sterol metabolism and IFN-mediated signaling (Bani, M., R., et al., Molecular Cancer Therapeutics 3(2) (2004) 111-121). With respect to the two time points (6 h and 24 h upon drug administration) microarray studies had been performed by other groups and we were able to reproduce 70% of their results (Bani, M., R., et al., Molecular Cancer Therapeutics 3(2) (2004) 111-121). In addition, we determined mRNA levels at two additional time points (72 h and 147 h upon drug administration) during prolonged drug exposure of cells.
Procedure: Seeding, Growth. […]
5000 MCF-7 cells were seeded per well and 24 h later treated with a final concentration of 12.5 nM Paclitaxel (dissolved in DMSO). […] The Paclitaxel concentration we applied in this experiment represents twice the IC50-value of this drug for MCF-7 cells and had been determined in an dose-response experiment (Paclitaxel titration) with the XCELLIGENCE system and an appropriate tool of the XCELLIGENCE software SP1.0.0.0807 (data not shown).

[2] = system: MCF-7 cells; assay: Gene expression profiling by q-RT-PCR (LIGHTCYCLER 480) of Paclitaxel-treated MCF-7 cells; format: cell-based, human
Protocol: We have performed gene expression profiling experiments of MCF-7 cells treated with Paclitaxel for a period of approximately 150 h. Within this example the gene expression of 20 different genes (gene accession numbers in brackets) were monitored:
We intended to determine and reproduce gene expression changes with time upon drug treatment, the majority of which had been observed and described before by others in an independent in vivo-study based on DNA microarray technique using ovarian carcinoma xenografts ([…], M., R., et al., Molecular Cancer Therapeutics 3(2) (2004) 111-121; Boschke, C., B., et al., Uni Tubingen (2008)). The time points for our pharmacokinetic screens have been chosen depending on cellular changes in response to Paclitaxel-treatment which were monitored by impedance-based real time cell analysis using the XCELLIGENCE system. Independent from the quality and extent of these cellular changes we harvested non-treated controls and drug-treated cells at their appropriate time points (6, 24, 72 and 147 h), isolated the mRNA by means of the MAGNA PURE System, reverse transcribed the total mRNA into cDNA using a common Thermocycler, pooled and diluted the cDNA samples and amplified the predefined set of specific genes as well as house keeping genes in triplicates by q-RT-PCR making use of the LIGHTCYCLER 480 System. Necessary primer pairs were synthesized and tested for functionality in-house in combination with a bioinformatically determined UPL probe (data not shown). The LIGHTCYCLER software 1.5 allowed the relative quantification of the selected mRNA abundance under Paclitaxel-treated conditions with respect to the corresponding non-treated situation (reference). Results are corrected by the values determined for internal standard genes (stably expressed house keeping genes), like β-Actin, β-Globin and GAPDH. […]

[3] = system: HT29 cells; assay: Cell Index monitoring (XCELLIGENCE RTCA SP) of HT29 cells treated with paclitaxel; format: cell-based; conditions: 50 nM paclitaxel
Protocol: HT29 cells were cultivated in parallel in McCoy's medium in either T75 cell culture bottles (for RNA isolation) or an E-Plate 96 (for cell growth monitoring) and in three regular microtiter plates (for WST-1 assay).
The surface of the bottom of a single well of the E-Plate 96 is given with approx. 0.2 cm^2. T75 cell culture bottles have 75 cm^2.
After 24 hours incubation at 37° C. paclitaxel was added to a final concentration of 50 nM. As the 2 mM paclitaxel stock was dissolved in DMSO, control cells were treated with DMSO to a final concentration of 0.0025%. In addition cells treated with medium only were monitored in parallel.
All cells were further incubated at 37° C. The growth of the cells was monitored real time on the RTCA SP Station over the whole course of the experiment (FIG. 3).
To ensure that untreated cells are within the early logarithmic growth phase at the time point of paclitaxel treatment, cells were treated with 50 nM paclitaxel at approx. ⅓ of their maximum Cell Index at 20 hours after seeding.

[4] = system: HT29 cells; assay: qPCR with RealTime Ready Human Apoptosis Panel, 96 in paclitaxel-treated HT29 cells; format: cell-based
Protocol: (§1) Cells were harvested for RNA isolation after one, two, four and 24 hours. Cell number was determined and portions of 10^6 cells were used for RNA isolation applying the High Pure RNA Isolation Kit following the manufacturer's instruction.
(§2) From each RNA population 1 μg total RNA was used for cDNA synthesis with the Transcriptor First Strand cDNA Synthesis Kit.
(§3) The total yield of one cDNA synthesis reaction starting from 1 μg RNA was used as template for each RealTime ready Human Apoptosis Panel, 96 or RealTime ready Human Cell Cycle Panel, 96. Total PCR reaction volume per well was 20 μl with Light Cycler480 Probes Master. The easy-to-use macro for the panel containing PCR protocol, sample setup and analysis was applied on LIGHTCYCLER480 software 1.5.
(§4) Four time points, one, two, four and twenty four hours were selected for qPCR runs on the LIGHTCYCLER480 system using the RealTime Ready Human Apoptosis Panel, 96 (FIG. 5) and the RealTime Ready Human Cell Cycle Panel, 96 (FIG. 7). Gene names corresponding to the numbers that can be found in the package insert of both panels (Roche Applied Science).

[5] = system: HT29 cells; assay: qPCR with RealTime Ready Human Cell Cycle Panel, 96 in paclitaxel-treated HT29 cells; format: cell-based; conditions: 50 nM paclitaxel vs DMSO control; time points 1, 2, 4, 24 hours
Protocol: as §1, §2, §3, §4

SMILES: CC(=O)O[C@H]1C(=O)[C@@]2(C)[C@H]([C@H](OC(=O)c3ccccc3)[C@]3(O)C[C@H](OC(=O)[C@H](O)[C@@H](NC(=O)c4ccccc4)c4ccccc4)C(C)=C1C3(C)C)[C@]1(OC(C)=O)CO[C@@H]1C[C@@H]2O [Paclitaxel]
- time upon drug addition at which proliferation curve switches from descending to ascending course [1]: approximately 20 h
- course of proliferation curve (impedance / cell index) versus control ([1]; control 0.1% DMSO): lower impedance or cell index values
- time upon drug treatment at which proliferation curve again begins to descend ([1]; descent continues up to ca. 150 h): around 70 h
- gene expression changes of investigated genes ([2]; 6 h upon drug addition, 12.5 nM Paclitaxel, vs non-treated): only small changes in expression
- gene expression changes of selected genes (e.g. CDKN1A, FOS, PIG8, TOP2A, MADH2) ([2]; 24 h after Paclitaxel treatment, 12.5 nM): become more obvious
- gene expression changes (ISG15, IFITM1, BNIP3, SLUG, ARF-1, CDC2, PLAB, IDI1) ([2]; later stages (72 and 147 h) of Paclitaxel treatment, 12.5 nM): strongest gene expression changes
- time after treatment to reach minimum Cell Index [3]: approx. 24 hours
- Cell Index (normalized) ([3]; 24 hours after treatment): zero
- Cell Index change ([3]; within the first hour after treatment): slightly increased
- number of genes significantly (more than 4 times) up/down regulated ([4]; 50 nM paclitaxel vs DMSO control, all time points compared): 6 genes
- time of most significant alteration of expression level of apoptosis related genes ([4]; 50 nM paclitaxel vs DMSO control, time points 1, 2, 4, 24 hours): within the first hour
- significant gene expression changes compared to DMSO control ([4]; two and four hours after paclitaxel treatment, 50 nM): no genes show significant expression changes
- time of most dramatic effects on cell cycle gene expression [5]: within the first four hours

Source: patent US20100255469A1, “Cell monitoring and molecular analysis” (priority 2008, published 2010)
